In PubChem BioAssay (NCI):
Several values for one entry are separate records, joined by “and”; a condition that tells them apart may be missing. Identical values can stand only once.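 Grown in 96-well plates, cells were treated for 48 hours with each compound at five concentrations. Insufficient inhibition: endpoint recorded as highest concentration tested. GI50 marks 50% less growth. The concentration for full growth arrest is given as TGI.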 Where a SMILES comes first, the peptide text is derived from it. [ ]: non-standard residue; d: D form. The star is where a group is joined. mTyr = N[CH](Cc1cccc(O)c1)C(=O)O; Cbz = O=C(OCc1ccccc1)*; OBn = c1ccc(CO*)cc1

What was measured:
Assay in all cases: NCI anticancer screen, dose series, 48 h
EKVX NSCLC = tested on: EKVX NSCLC
HCT-15 colon = tested on: HCT-15 colon
MCF7 breast = tested on: MCF7 breast
NCI-H23 lung = tested on: NCI-H23 lung
NCI-H460 lung = tested on: NCI-H460 lung
PC-3 prostate = tested on: PC-3 prostate
SF-295 CNS = tested on: SF-295 CNS
SK-MEL-28 melanoma = tested on: SK-MEL-28 melanoma
SNB-75 CNS = tested on: SNB-75 CNS
UACC-257 melanoma = tested on: UACC-257 melanoma

Compound	TGI (EKVX NSCLC) [µM]	TGI (HCT-15 colon) [µM]	TGI (MCF7 breast) [µM]	TGI (NCI-H23 lung)	TGI (NCI-H460 lung)	TGI (PC-3 prostate) [µM]	TGI (SF-295 CNS)	TGI (SK-MEL-28 melanoma)	TGI (SNB-75 CNS)	TGI (UACC-257 melanoma)	GI50 (SF-295 CNS) [µM]	GI50 (EKVX NSCLC) [µM]	GI50 (NCI-H23 lung) [µM]
O[C@H]1[C@H](O)[C@@H](O)[C@@]2(O)C[C@@H](O)[C@@H]1N2	> 100	> 100	> 100	> 100 µM	> 100 µM	> 100	> 100 µM	> 100 µM	> 100 µM	> 100 µM	–	–	–
COc1ccc(N=C2C(=Nc3ccc(OC)cc3)N(c3ccccc3)C(=S)N2N=C=C2Sc3ccccc3N2C)cc1	> 100	> 100	> 100	> 100 µM	> 100 µM	> 100	> 100 µM	> 100 µM	–	> 100 µM	–	–	–
Brc1c(C#CCC2CCCCC2)ccc(C#CCC2CCCCC2)c1Br	> 100	> 100	> 100	–	> 100 µM	> 100	> 100 µM	> 100 µM	> 100 µM	> 100 µM	–	–	–
O=C1NC(=S)N(c2ccccc2)C1=O	> 100	> 100	–	> 100 µM	> 100 µM	> 100	> 100 µM	> 100 µM	> 100 µM	> 100 µM	–	–	–
CCCc1ccc(NCc2cc(OC)c(OC)c(OC)c2)cc1	> 100	32.1	–	69.2 µM	> 100 µM	–	–	73.9 µM	94.8 µM	74.7 µM	–	–	–
COc1ccc(/C=C2\CN(C)C/C(=C\c3ccc(OC)c(OC)c3OC)C2=O)c(OC)c1OC	4.37	–	–	–	0.435 µM	1.43	1.01 µM	0.393 µM	2.64 µM	0.571 µM	–	–	–
Cc1nc(-c2ccc(N=Cc3ccc(N(CCOS(C)(=O)=O)CCOS(C)(=O)=O)cc3C)cc2)cs1	–	> 100	53.6	> 100 µM	> 100 µM	> 100	> 100 µM	> 100 µM	> 100 µM	> 100 µM	–	–	–
CC1OC(OC2C(OC(=O)[C@@H]3CC(C)(C)C[C@H]4C5=CC[C@@H]6[C@@]7(C)C[C@H](O)[C@H](OC8OC(CO)C(O)C(O)C8O)[C@@](C)(CO)[C@@H]7[C@H](O)C[C@@]6(C)[C@]5(C)CC[C@@]34C)OCC(O)C2O)C(O)C(O)C1O (stereo partly specified)	> 7.5	> 7.5	> 7.5	> 7.5 µM	> 7.5 µM	> 7.5	> 7.5 µM	–	> 7.5 µM	> 7.5 µM	–	–	–
Cc1ccc2nc(NC(=O)/C(Cc3nc4ccc(Cl)cc4[nH]c3=O)=N\NC(C)(C)C)sc2c1	–	> 100	> 100	> 100 µM	> 100 µM	> 100	> 100 µM	> 100 µM	83.1 µM	> 100 µM	–	–	–
CCC1(COC(NC(=O)c2ccccc2)(C(F)(F)F)C(F)(F)F)COC1	> 100	> 100	–	> 100 µM	–	> 100	–	> 100 µM	> 100 µM	> 100 µM	–	–	–
O=C(CC(=O)Nc1ccccc1)N/N=C/c1cc(N=Nc2ccc(Br)cc2)ccc1O	> 10	> 10	> 10	> 10 µM	> 10 µM	–	–	> 10 µM	> 10 µM	7.71 µM	–	–	–
CC(NC(C)(C)C)C(=O)c1cccc(Cl)c1 (stereo unspecified)	> 100	–	–	> 100 µM	> 100 µM	–	> 100 µM	> 100 µM	> 100 µM	> 100 µM	–	–	–
Cc1ccc(N=Nc2c(O)c(C(=O)Nc3ccccc3)cc3ccccc23)c([N+](=O)[O-])c1	> 100	> 100	–	> 100 µM	–	> 100	> 100 µM	> 100 µM	> 100 µM	> 100 µM	–	–	–
COC(=O)c1cnn2c1n[n+]([O-])c1ccccc12	> 100	–	> 100	> 100 µM	–	> 100	> 100 µM	> 100 µM	> 100 µM	> 100 µM	–	–	–
CC1(C)OCC(C(O)C2OC(C)(C)OC2/C=N\O)O1 (stereo unspecified)	> 100	–	–	> 100 µM	> 100 µM	–	> 100 µM	> 100 µM	> 100 µM	> 100 µM	–	–	–
COC(=O)C(Cc1cccc(O)c1)NC(=O)C(CC(=O)OCc1ccccc1)NC(=O)OCc1ccccc1 (stereo unspecified) (Cbz-Asp(OBn)-[mTyr]-OMe; configuration not given here)	> 100	> 100	> 100	> 100 µM	35.6 µM	> 100	–	> 100 µM	> 100 µM	> 100 µM	–	–	–
CC(C)=C/C=C1/CS(=O)(=O)C=C1C	> 100	> 100	> 100	> 100 µM	–	> 100	> 100 µM	> 100 µM	> 100 µM	> 100 µM	–	–	–
C/C1=C\[C@@H](O)C(=O)/C=C/C=C\c2csc(n2)[C@@H](C)NC(=O)C[C@@]2(CC1)S(=O)SC(=O)[C@]2(C)O (stereo partly specified)	0.612	–	0.0101	0.0275 µM and 0.0102 µM	0.27 µM and 0.327 µM	0.0387	0.59 µM and 3.73 µM	0.0727 µM and 0.0168 µM	0.0995 µM and 0.0219 µM	0.115 µM and 0.0222 µM	0.053	–	–
COc1cc2c(cc1OC)C1(c3ccc(Cl)cc3)ON=C(c3ccccc3)N1CS2 (stereo unspecified)	> 100	> 100	–	> 100 µM	> 100 µM	–	> 100 µM	> 100 µM	> 100 µM	> 100 µM	–	–	–
COc1cccc(N2C(=O)C3c4[nH]c5ccc(C)cc5c4C4CCC(C(C)(C)C)CC4C3C2=O)c1 (stereo unspecified)	> 10	> 10	> 10	5.74 µM	4.43 µM	> 10	> 10 µM	> 10 µM	7.36 µM	–	–	–	–
O=C(N/N=C/c1cc(Cl)cc(Cl)c1O)c1ccccc1O	> 100	15.7	–	–	18.8 µM	–	11.3 µM	25.2 µM	22.5 µM	14.6 µM	–	1.71	2.69
COc1cc(/C=C(/C#N)C(N)=O)ccc1O	> 100	> 100	> 100	> 100 µM	> 100 µM	–	> 100 µM	> 100 µM	> 85.6 µM	> 100 µM	–	–	–
Cc1cc(NCCCCCCCNc2cc(C)nc3cc([N+](=O)[O-])ccc23)c2ccc([N+](=O)[O-])cc2n1	35.9	9.8	–	> 24.9 µM	6.36 µM	31.1	26.4 µM	10.1 µM	40.9 µM	36.9 µM	–	–	–

Compound	TGI (EKVX NSCLC) [µM]	TGI (HCT-15 colon) [µM]	TGI (MCF7 breast) [µM]	TGI (NCI-H23 lung)	TGI (NCI-H460 lung)	TGI (PC-3 prostate) [µM]	TGI (SF-295 CNS)	TGI (SK-MEL-28 melanoma)	TGI (SNB-75 CNS)	TGI (UACC-257 melanoma)	GI50 (SF-295 CNS) [µM]	GI50 (EKVX NSCLC) [µM]	GI50 (NCI-H23 lung) [µM]
FC(F)(F)c1ccc2nc(Sc3ccccn3)cnc2c1	> 100	> 100	> 100	78.8 µM	> 100 µM	–	> 100 µM	> 100 µM	96.1 µM	> 100 µM	–	–	–
Nc1ccc(C(=O)NN2C(=O)C(Cl)C2c2ccccc2)cc1 (stereo unspecified)	> 100	> 100	–	> 100 µM	> 100 µM	–	> 100 µM	> 100 µM	> 100 µM	> 100 µM	–	–	–
CCOC(=O)c1ccc(C(=O)C(C(C)=O)C(=O)OC(C)(C)C)[nH]1 (stereo unspecified)	> 100	> 100	> 100	> 100 µM	> 100 µM	> 100	> 100 µM	> 100 µM	> 100 µM	–	–	–	–
COc1ccc2oc(=N)c(C(=O)Nc3ccccn3)cc2c1	> 100	> 100	> 100	> 100 µM	> 100 µM	> 100	–	> 100 µM	> 100 µM	> 100 µM	–	–	–
O=C(Nc1cccc(F)c1)c1cc2ccc(O)cc2oc1=Nc1ccccc1F	6.17	13.8	25.7	5.86 µM	> 100 µM	24.3	23.6 µM	18 µM	–	31.1 µM	–	–	–
O=C(CSC1=NCCN1)Nc1ccccc1	> 100	> 100	–	> 100 µM	> 100 µM	52.6	> 100 µM	62.6 µM	43.5 µM	40.2 µM	–	–	–
c1ccc(CSCCc2ccncc2)cc1	> 100	> 100	> 100	> 100 µM	> 100 µM	> 100	> 100 µM	> 100 µM	–	> 100 µM	–	–	–
Cc1ccc(CC(C)N)cc1 (stereo unspecified)	> 100	> 100	–	> 100 µM	> 100 µM	–	> 100 µM	> 100 µM	> 100 µM	> 100 µM	–	–	–
CCOP(=O)(OCC)C(C)(CC)NC (stereo unspecified)	> 100	> 100	> 100	> 100 µM	> 100 µM	–	> 100 µM	> 100 µM	> 100 µM	> 100 µM	–	–	–
CNc1ccc(N)cc1C(=O)N1CCC[C@H]1CO	> 100	> 100	> 100	> 100 µM	–	> 100	> 100 µM	> 100 µM	> 100 µM	> 100 µM	–	–	–
COc1cc(-c2cc(-c3cc([N+](=O)[O-])c(/C=N/NC(=O)c4ccncc4)o3)ccc2OC)ccc1C	> 100	–	–	> 100 µM	–	–	> 100 µM	> 100 µM	> 100 µM	> 100 µM	–	–	–
CCC(c1c[nH]c2ccc(Br)cc12)c1c[nH]c2ccc(Br)cc12	17.2	15	15.5	11 µM	6.82 µM	17.1	18.8 µM	25.4 µM	–	23.9 µM	–	–	–
CC(C)(C)c1cc(C2COC(c3cc(C(C)(C)C)c(O)c(C(C)(C)C)c3)CO2)cc(C(C)(C)C)c1O (stereo unspecified)	> 100	> 100	> 100	> 100 µM	–	> 100	> 100 µM	> 100 µM	> 100 µM	> 100 µM	–	–	–
O=[As](O)(O)c1ccc(N=Nc2ccc(O)cc2)cc1	> 100	> 100	> 100	> 100 µM	> 100 µM	> 100	> 100 µM	> 100 µM	> 100 µM	–	–	–	–
O=C(Cc1ccccc1)NN1C(=O)C(Cl)C1c1ccccc1O (stereo unspecified)	26.7	> 100	–	> 100 µM	38.2 µM	–	> 100 µM	> 100 µM	> 100 µM	71.5 µM	–	–	–
COc1ccc2c(c1)CCN1CCc3cc(OC)c(OC)cc3CC21 (stereo unspecified)	> 10	> 100	> 100	> 100 µM	–	–	> 100 µM	> 100 µM	> 100 µM	> 100 µM	–	–	–
CCN(CC)CCNCc1cc(Cl)cc2c1OCOC2	> 10	> 10	> 10	> 10 µM	> 10 µM	> 10	> 10 µM	> 10 µM	> 10 µM	–	–	–	–
COc1ccc(CSc2ccccc2Cn2cccc2)cc1OC	> 100	> 100	> 100	> 100 µM	> 100 µM	–	> 100 µM	> 100 µM	> 100 µM	> 100 µM	–	–	–
O=c1onc2c3ccccc3ncn12	> 100	> 100	> 100	> 100 µM	–	> 100	> 100 µM	> 100 µM	> 100 µM	> 100 µM	–	–	–
COC(=O)C1=C(OC(=O)c2ccccc2)C(C(=O)OC)[C@]2(O)[C@@H](C(=O)OC)[C@H]1C[C@@H](c1ccccc1)[C@@H]2C(=O)OC (stereo partly specified)	> 100	35.4	15.7	32.7 µM	42.4 µM	23.7	36.7 µM	76.3 µM	–	84.6 µM	–	–	–
CCN(CC)Cc1sc2nc3ccccc3n2c1-c1ccc(OC)cc1	75.1	> 100	> 100	> 100 µM	–	> 100	> 100 µM	> 100 µM	> 100 µM	> 100 µM	–	–	–
C/C(=C/CC[C@]1(CO)CC[C@]2(CO)[C@H](CC[C@@H]3[C@@]4(C)CC[C@H](OC5OCC(O)C(O)C5OC5OC(CO)C(O)C(O)C5O)C(C)(C)[C@@H]4CC[C@]32C)[C@H]1O)CO (stereo partly specified)	> 100	–	> 100	> 100 µM	> 100 µM	> 100	> 100 µM	> 100 µM	> 100 µM	> 100 µM	–	–	–
